Experimental data published in US12385042B2, “Cell-penetrating peptides” (VECTIOPEP OÜ, priority 2019, dated 2025).
Entries after “also recorded” stand apart in the source; their conditions may differ. Where a SMILES comes first, the peptide text is derived from it. Bridges are numbered along the chain shown (N, C = ends). Roman numbers before positions name the chains, in order. [ ]: non-standard residue; d: D form. The star is where a group is joined. Stearoyl = CCCCCCCCCCCCCCCCCC(=O)*; Orn = NCCC[C@H](N)C(=O)O

Assays:
[1] = tested on: U87 MG-luc2 human glioma cells, stably expressing luc2; experiment: Luciferase gene downregulation by CPP/siRNA (siLuc2) complexes; format: cell-based; settings: CPP/siRNA complexes; for Red (%) (reduction, based on remaining luminescence on U87 cells post-treatment): siRNA against luciferase; for luciferase downregulation efficiency (in words): comparison between CPPs
Experimental: For assessing the siRNA mediated RNAi, CHO-GFP or U87-luc2 cells (5×10^5 cells per well) were seeded on a 24-well plate a day prior to the experiment and grown in serum containing media. On experiment day, prior to adding pre-formed complexes ( 1/10th of the final volume per well), media was replaced with fresh serum containing medium.
For complex formation, peptide was mixed with luc2 siRNA (sense 5′-[…]-3′ (SEQ ID NO:7), antisense 5′-[…] 3′ (SEQ ID NO:8), Metabion, Germany) or with siRNA against GFP (5′-[…] (SEQ ID NO:9), 3′-[…] (SEQ ID NO:10)) in mQ water (pH 5.3-6.3) using peptide to siRNA molar ratios (MR is the ratio of peptide to siRNA) […] and incubated at RT for 1 h. For siLuc2, the final concentration in media was 25 nM and for siGFP 100 nM. Cells were co-incubated with complexes for 4 h (37° C., 5% CO2), thereafter fresh serum containing media was added and followed by further incubation (20 h for siLuc2 or 44 h for siGFP complexes). Luciferase gene downregulation was measured from cell lysates with Promega luciferase assay system (Promega, Sweden) in combination with GLOMAX 96 microplate luminometer equipped with GLOMAX 1.9.2 software (Promega). GFP was measured after treatment from cell lysates on black 96-well plates by measuring total fluorescence (Symergy MX, BioTek Instruments, USA equipped with Gen5 1.10 software). The results were normalized to the protein content of each sample (DC Protein Assay, BioRad, USA).
Luciferase activity was determined as described in previous paragraph.
For determination of pH dependency on the transfection efficiency, complexes were formed at MR30, incubated and diluted before addition to cells to obtain siRNA final concentration 10 nM in transfection media. HEPES buffer supplemented with 10% FBS was used as transfection media. Complexes were co-incubated with cells for 4 h and then media was replaced with cell growth media. After further 20 h incubation cells were lysed and analyzed as described previously.
The experiment was carried out in serum containing media (10% FBS). CPP/siRNA complexes were formed at different molar ratios with siRNA concentration kept constant (50 nM in transfection media). Luminescence from luciferin-luciferase reaction was measured at 24 hours post-treatment from cell lysate. Results were normalized to protein content and luminescence values from untreated cells (100%).

[2] = Negative staining TEM of CPP/siRNA nanoparticles; format: physicochemical; settings: CPP/siRNA complexes at MR30
Experimental: For the morphological analysis the CPP/siRNA complexes were assembled as described above at MR30. For negative staining, copper grids were covered with Formvar film and carbon layer using Leica EM ACE600 carbon coater (Leica Microsystems, Germany). Then, 10 μL of each sample was absorbed to the grids for 2 min and excess of solution was gently removed. Samples were then exposed to 2% aqueous uranyl acetate solution for 1 min. After removing excess stain with filter paper, the samples were allowed to air-dry. The samples were examined at 120 kV accelerating voltage on FEI Tecnai G2 Spirit electron microscope (FEI, The Netherlands).

[3] = Fluorescent dye (PicoGreen) intercalation and heparin displacement assay of CPP/siRNA complexes; format: physicochemical; settings: 0.5 mg/ml heparin, complexes pre-formed at MR30
Experimental: Complexation of siRNA and CPPs was assessed by Quant-iT™ PicoGreen® (PG) (Thermo Fisher Scientific, USA) assay in mQ water. Complexes were prepared as described previously, following addition of diluted PG. For detection, complexes (⅕ of volume), water (3/5) and PG (1/5) working dilution was incubated for 5 minutes and fluorescence was measured by fluorimeter (λex=492 nm, λem=535 nm) (SynergyMx, BioTek). For heparin displacement, instead of water, heparin salt solution at different concentrations were used and complexes incubated at 37° C. for 30 min before addition of PG dilution. Complex formation was also confirmed by gel electrophoresis (details in section 2.11).

murine red blood cells = experiment: Membrane activity assay on murine red blood cells: hemolysis; format: cell-based, mouse
Experimental: For evaluation of membrane activity of peptides, hemolysis assay was used. For this whole blood was collected from mouse (adult, BALB/c) saphenous vein into a heparinized collection tube. Blood was centrifuged (2300× g, 15 min) to separate cells (red blood cells-RBC) from the plasma. RBCs were washed according to following procedures.
RBCs were washed with 10 ml 0.9% NaCl saline and centrifuged (600× g, 15 min). Supernatant was discarded after each centrifugation. This was repeated at least 3 times. RBCs were re-suspended in 5 ml saline and distributed equally to tubes and centrifuged (600× g, 15 min). The cells were washed and re-suspended in 2× PBS with the required pH (pH 5.5-7.5). The hemoglobin content in stocks was measured after lysis of cells with equal volume of 0.1% Triton X100 supplemented with 5% glucose. The cell suspension was diluted accordingly for each pH value to obtain similar concentration range of hemoglobin in stocks. To each 100 ul of peptide solution 100 ul of 10% glucose was added, mixed, and equal volume (200 ul) of RBC in 2× PBS were added and gently mixed. Peptide solution with RBCs was incubated at 37° C. for 1 h with gentle mixing (max 300 rpm) after which samples were centrifuged to pellet intact cells from the solution. Hemoglobin from lysed cells was determined from each sample from the supernatant on transparent 96-well plates by measuring the absorbance at 540 nm.
Controls were incubated in similar manner as samples. As a non-hemolysis control mQ supplemented with glucose (0%) was used and for hemolytic control 0.1% TritonX-100 with glucose (100%) was used (cells are suspended in 2× PBS before addition). Final percent was calculated as follows: […]
For hemolytic concentration determination 2× PBS at pH 7.5 was used for incubation and 1× PBS at pH 7.5 was used for washing. Everything else is as described in previous paragraph.

CHO cells = experiment: pDNA (p-CMV-Luc2) transfection with CPP/pDNA complexes; format: cell-based; settings: serum containing medium, CR1 to CR4, 24 h
Experimental: For the pDNA transfection experiment, CPP/pDNA nanoparticles were prepared by mixing […] of plasmid (p-CMV-Luc2) with the peptide in MQ water. Charge ratios from 1 to 4 (CR, equivalent to the nitrogen-to-phosphate ratio) were used. 50,000 CHO cells were seeded 24 hr before the experiment into 24-well plates, treated with complexes for 4 h in serum-containing medium, incubated for additional 20 hr, lysed and luminescence was measured.

organs of BALB/c mice = experiment: Gene delivery in vivo (CPP/pDNA, i.v., organ luminescence); set-up: species or system mouse; settings: CR2 or CR4, 50 μg or 20 μg pDNA, 24 h
Experimental: For in vivo pDNA delivery studies BALB/c mice were used. Each animal received a single […] intravenous (i.v.) injection of the complexes at CR2 or CR4. Two doses of pDNA […] were used. After 24 hr, the mice were sacrificed using cervical dislocation, and whole organs were harvested and snap-frozen on dry ice. The organs were homogenized, and luminescence was measured.

| Molecule | Red (%) (reduction, based on remaining luminescence on U87 cells post-treatment) [1] | length or size of elongated particles, conglomerates or aggregates (TEM) [2] | pDNA delivery / gene expression in vitro (in words) (CHO cells) | other results |
| --- | --- | --- | --- | --- |
| CCCCCCCCCCCCCCCCCC(=O)N[C@@H](C)C(=O)NCC(=O)N[C@@H](Cc1ccc(O)cc1)C(=O)N[C@@H](CC(C)C)C(=O)N[C@@H](CC(C)C)C(=O)NCC(=O)NCCC[C@H](N)C(=O)N[C@H](C(=O)N[C@@H](CC(N)=O)C(=O)N[C@@H](CC(C)C)C(=O)N[C@@H](CCCCN)C(=O)N[C@@H](C)C(=O)N[C@@H](CC(C)C)C(=O)N[C@@H](C)C(=O)N[C@@H](C)C(=O)N[C@@H](CC(C)C)C(=O)N[C@@H](C)C(=O)N[C@@H](CCCCN)C(=O)N[C@@H](C)C(=O)N[C@H](C(=O)N[C@@H](CC(C)C)C(N)=O)[C@@H](C)CC)[C@@H](C)CC [NF55, reference compound] (I: H-[Orn]INLKALAALAKAIL-NH2 / II: Stearoyl-AGYLLG; amide I:1-II:C) | 75% | up to 100 nm |  | nanoparticle diameter / size (TEM) [2]: 10-50 nm; siRNA accessible [3]: 10%; HC50 CPP/siRNA complex (peptide concentration) (murine red blood cells; CPP/siRNA complexes at MR30): 3.2 µM; HC50 Free peptide (murine red blood cells; free peptide, pH 7.5): 1.7 µM; increase of hemolytic activity at pH 5.5 (murine red blood cells; peptide 0.75 uM, buffer pH 5.5): 25%; pH dependent hemolytic activity (in words) (murine red blood cells; peptide 0.75 uM, buffer pH 5.5-7.5): least influenced by the pH decrease |
| HHHHYHHGO^eILLKALKALAKAIL [NF700, group H6; without fatty acid; C-terminally amidated] | 6% | exceed 500 nm |  | luciferase downregulation efficiency (in words) [1]: do not reveal any significant luciferase silencing activity |
| HHHHYHHGO^eILLKALKALAKAIL [NF702, group H6; C18 saturated fatty acid on N-terminus; C-terminally amidated] | 70% |  | almost yielded the same gene expression level as that of NF70 and NF55; also recorded: promising vectors for pDNA transfection |  |
| HHHHYHHGO^eILLKALKALAKAIL [NF703, group H6; C22 saturated fatty acid on N-terminus; C-terminally amidated] | 73% | 10-20 nm |  | luciferase downregulation efficiency (in words) [1]: RNA interference effect decreases again |
| HHHYHHGO^eILLKALKALAKAIL [NF716, group H5; C20 saturated fatty acid on N-terminus; C-terminally amidated] | 65% |  | promising vectors for pDNA transfection |  |
| HYHHGO^eILLKALKALAKAIL [NF725, group H3; C18 saturated fatty acid on N-terminus; C-terminally amidated] | 60% |  | promising vectors for pDNA transfection | reporter gene expression in organs after i.v. CPP/pDNA (in words) (organs of BALB/c mice): high gene expression level in liver; also recorded: higher at CR4 than CR2 |
| HYHHGO^eILLKALKALAKAIL [NF727, group H3; C22 saturated fatty acid on N-terminus; C-terminally amidated] | 43% |  | promising vectors for pDNA transfection |  |
